One molecule from publication PMC5473854, “Structure of the human TRiC/CCT Subunit 5 associated with hereditary sensory neuropathy” (Scientific Reports, 2017) can be followed below.

For the assay, the target named is T1, human CCT5 (TRiC subunit 5) homo-oligomeric complex (Homo sapiens, UniProt P48643, H147R).
T1 construct: recombinant from pET21a in E. coli BL21(DE3)RIL, Histrap purified (tag not described here); double homo-octameric ring (two rings of eight, homo-hexadecamer)
Put plainly: X-ray crystal structure, […] Å. The following applies: co-crystallised with 5.0 mM ADP; nucleotide-binding site of equatorial domain; 4 ADP per 4 subunits in asymmetric unit.

T1 sequence (P48643 whole entry H147R, one chain of several): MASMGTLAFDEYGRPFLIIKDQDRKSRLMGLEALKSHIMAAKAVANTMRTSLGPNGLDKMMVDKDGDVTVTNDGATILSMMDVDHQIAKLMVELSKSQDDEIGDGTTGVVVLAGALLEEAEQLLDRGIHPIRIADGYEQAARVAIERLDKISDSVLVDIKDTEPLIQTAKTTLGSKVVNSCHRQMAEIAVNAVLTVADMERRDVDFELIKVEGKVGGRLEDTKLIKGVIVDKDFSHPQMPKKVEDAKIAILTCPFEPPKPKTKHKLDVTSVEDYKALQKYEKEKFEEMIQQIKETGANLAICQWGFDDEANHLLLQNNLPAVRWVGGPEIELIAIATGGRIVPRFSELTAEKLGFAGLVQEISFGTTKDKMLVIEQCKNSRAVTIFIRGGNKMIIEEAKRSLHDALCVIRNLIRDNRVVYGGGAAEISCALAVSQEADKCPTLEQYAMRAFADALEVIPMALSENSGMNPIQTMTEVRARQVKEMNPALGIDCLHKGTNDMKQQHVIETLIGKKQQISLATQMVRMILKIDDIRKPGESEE

For `Nc1ncnc2c1ncn2[C@@H]1O[C@H](COP(=O)(O)OP(=O)(O)O)[C@@H](O)[C@H]1O` [ADP], the “X-ray crystal structure, 3.6 Å” value was “the CCT5-H147R structure was solved in complex with the nucleotide ADP”.
